According to patent US20110301170A1, “Inhibitors of JNK” (priority 2010, published 2011):
Counter-ions that a name gives are not always drawn.

system: not given; experiment: not given; settings: not given

SMILES | melting point [°C]
C=C(C)c1cccc2c1ccn2-c1ccnc(N[C@H]2CC[C@H](C(=O)N3CCn4cnnc4C3)CC2)n1 (as salt: HCl) [Compound 25, (5,6-Dihydro-8H-[1,2,4]triazolo[4,3-a]pyrazin-7-yl)-{4-[4-(4-isopropenyl-indol-1-yl)-pyrimidin-2-ylamino]-cyclohexyl}-methanone] | 186 to 188
C=C(C)c1cccc2c1ccn2-c1ccnc(N[C@H]2CC[C@H](C(=O)N3CCn4c(C)nnc4C3)CC2)n1 (as salt: HCl) [Compound 26, {4-[4-(4-Isopropenyl-indol-1-yl)-pyrimidin-2-ylamino]-cyclohexyl}-(3-methyl-5,6-dihydro-8H-[1,2,4]triazolo[4,3-a]pyrazin-7-yl)-methanone] | 216.6 to 221
O=C([C@H]1CC[C@H](Nc2nccc(-n3ccc4c(OC(F)F)cccc43)n2)CC1)N1CCn2cnnc2C1 (as salt: HCl) [Compound 27, {4-[4-(4-Difluoromethoxy-indol-1-yl)-pyrimidin-2-ylamino]-cyclohexyl}-(5,6-dihydro-8H-[1,2,4]triazolo[4,3-a]pyrazin-7-yl)-methanone] | 175 to 178
Cc1nnc2n1CCN(C(=O)[C@H]1CC[C@H](Nc3nccc(-n4ccc5c(OC(F)F)cccc54)n3)CC1)C2 (as salt: HCl) [Compound 28, {4-[4-(4-Difluoromethoxy-indol-1-yl)-pyrimidin-2-ylamino]-cyclohexyl}-(3-methyl-5,6-dihydro-8H-[1,2,4]triazolo[4,3-a]pyrazin-7-yl)-methanone] | 205 to 210
Cc1cccc2c1nnn2-c1ccnc(N[C@H]2CC[C@H](C(=O)N3CCn4cc(C(F)(F)F)nc4C3)CC2)n1 (as salt: HCl) [Compound 33, {4-[4-(4-Methyl-benzotriazol-1-yl)-pyrimidin-2-ylamino]-cyclohexyl}-(2-trifluoromethyl-5,6-dihydro-8H-imidazo[1,2-a]pyrazin-7-yl)-methanone] | 258 to 260
Cc1cccc2c1nnn2-c1ccnc(N[C@H]2CC[C@H](C(=O)N3CCn4cnnc4C3)CC2)n1 (as salt: HCl) [Compound 34, (5,6-Dihydro-8H-[1,2,4]triazolo[4,3-a]pyrazin-7-yl)-{4-[4-(4-methyl-benzotriazol-1-yl)-pyrimidin-2-ylamino]-cyclohexyl}-methanone] | 236 to 238
Cc1cccc2c1nnn2-c1ccnc(N[C@H]2CC[C@H](C(=O)N3CCn4c(C)nnc4C3)CC2)n1 (as salt: HCl) [Compound 35, {4-[4-(4-Methyl-benzotriazol-1-yl)-pyrimidin-2-ylamino]-cyclohexyl}-(3-methyl-5,6-dihydro-8H-[1,2,4]triazolo[4,3-a]pyrazin-7-yl)-methanone] | 246 to 248
O=C([C@H]1CC[C@@H](Nc2nccc(-n3nnc4c(C(F)(F)F)cccc43)n2)CC1)N1CCn2cnnc2C1 (as salt: HCl) [Compound 37, (5,6-Dihydro-8H-[1,2,4]triazolo[4,3-a]pyrazin-7-yl)-{4-[4-(4-trifluoromethyl-benzotriazol-1-yl)-pyrimidin-2-ylamino]-cyclohexyl}-methanone] | 200 to 210
CC(C)(O)c1cccc2c1nnn2-c1ccnc(N[C@H]2CC[C@H](C(=O)N3CCn4cnnc4C3)CC2)n1 (as salt: HCl) [Compound 38, (5,6-Dihydro-8H-[1,2,4]triazolo[4,3-a]pyrazin-7-yl)-(4-{4-[4-(1-hydroxy-1-methyl-ethyl)-benzotriazol-1-yl]-pyrimidin-2-ylamino}-cyclohexyl)-methanone] | 180 to 200
Cc1nnc2n1CCN(C(=O)[C@H]1CC[C@H](Nc3nccc(-n4nnc5c(C(C)(C)O)cccc54)n3)CC1)C2 (as salt: HCl) [Compound 39, (4-{4-[4-(1-Hydroxy-1-methyl-ethyl)-benzotriazol-1-yl]-pyrimidin-2-ylamino}-cyclohexyl)-(3-methyl-5,6-dihydro-8H-[1,2,4]triazolo[4,3-a]pyrazin-7-yl)-methanone] | 145 to 150
O=C([C@H]1CC[C@H](Nc2nccc(-n3nnc4c(OC(F)F)cccc43)n2)CC1)N1CCn2cnnc2C1 (as salt: HCl) [Compound 44, {4-[4-(4-Dilfuoromethoxy-benzotriazol-1-yl)-pyrimidin-2-ylamino]-cyclohexyl}-(5,6-dihydro-8H-[1,2,4]triazolo[4,3-a]pyrazin-7-yl)-methanone] | 185 to 190
Cc1nnc2n1CCN(C(=O)[C@H]1CC[C@H](Nc3nccc(-n4nnc5c(OC(F)F)cccc54)n3)CC1)C2 (as salt: HCl) [Compound 45, {4-[4-(4-Difluoromethoxy-benzotriazol-1-yl)-pyrimidin-2-ylamino]-cyclohexyl}-(3-methyl-5,6-dihydro-8H-[1,2,4]triazolo[4,3-a]pyrazin-7-yl)-methanone] | 190 to 195
O=C([C@H]1CC[C@H](Nc2nccc(-n3ncc4c(C(F)(F)F)cccc43)n2)CC1)N1CCn2cnnc2C1 [Compound 29, (5,6-Dihydro-8H-[1,2,4]triazolo[4,3-a]pyrazin-7-yl)-{4-[4-(4-trifluoromethyl-indazol-1-yl)-pyrimidin-2-ylamino]-cyclohexyl}-methanone] | 223 to 227
Cc1nnc2n1CCN(C(=O)[C@H]1CC[C@H](Nc3nccc(-n4ncc5c(C(F)(F)F)cccc54)n3)CC1)C2 [Compound 30, (3-Methyl-5,6-dihydro-8H-[1,2,4]triazolo[4,3-a]pyrazin-7-yl)-{4-[4-(4-trifluoromethyl-indazol-1-yl)-pyrimidin-2-ylamino]-cyclohexyl}-methanone] | 258 to 260

system: T1, JNK; experiment: JNK Assay in vitro (phosphorylation of GST-ATF2 with [γ-33P] ATP); assay type: biochemical, Human; settings: IC50 affinity values; JNK isoform (JNK1α1, JNK2α2 or JNK3) not stated; Km concentrations of ATP and substrate; 30° C. for 30 min
T1 construct: Human JNK2α2 assay contains 1 nM enzyme; Human JNK1α1 assay contains 2 nM enzyme
Procedure: JNK activity was measured by phosphorylation of GST-ATF2 (19-96) with [-^33P] ATP. […] Human JNK2α2 assay contains 1 nM enzyme, 1 μM ATF2, 8 μM ATP with 1 uCi [γ-^33P] ATP. Human JNK1α1 assay contains 2 nM enzyme, 1 μM ATF2, 6 μM ATP with 1 μCi [γ-^33P] ATP. Human JNK3 (Upstate Biotech #14-501M) assay contains 2 nM enzyme, 1 μM ATF2, 4 μM ATP with 1 μCi [γ-^33P] ATP. The enzyme assay was carried out in the presence or absence of several compound concentrations. JNK and compound were pre-incubated for 10 min., followed by initiation of the enzymatic reaction by adding ATP and the substrate. The reaction mixture was incubated at 30° C. for 30 min. At the end of incubation, the reaction was terminated by transferring 25 μl of the reaction mixture to 150 μl of 10% glutathione Sepharose® slurry (Amersham #27-4574-01) containing 135 mM EDTA. The reaction product was captured on the affinity resin, and washed on a filtration plate (Millipore, MABVNOB50) with phosphate buffered saline for six times to remove free radionucleotide. The incorporation of ^33P into ATF2 was quantified on a microplate scintillation counter (Packard Topcount). Compound inhibition potency on JNK was measured by IC50 value generated from ten concentration inhibition curves fitted into the 3-parameter model: % inhibition=Maximum/(1+(IC50/[Inhibitor])^slope). Data were analyzed on Microsoft Excel for parameter estimation.

SMILES | IC50 [nM]
O=C([C@H]1CC[C@H](Nc2nccc(-n3ncc4c(C(F)(F)F)cccc43)n2)CC1)N1CCn2cnnc2C1 [Compound 29, (5,6-Dihydro-8H-[1,2,4]triazolo[4,3-a]pyrazin-7-yl)-{4-[4-(4-trifluoromethyl-indazol-1-yl)-pyrimidin-2-ylamino]-cyclohexyl}-methanone] | 135
Cc1nnc2n1CCN(C(=O)[C@H]1CC[C@H](Nc3nccc(-n4ncc5c(C(F)(F)F)cccc54)n3)CC1)C2 [Compound 30, (3-Methyl-5,6-dihydro-8H-[1,2,4]triazolo[4,3-a]pyrazin-7-yl)-{4-[4-(4-trifluoromethyl-indazol-1-yl)-pyrimidin-2-ylamino]-cyclohexyl}-methanone] | 165
